According to patent US6737383B1, “Herbicidal oxadiazolidines” (priority 1999, dated 2004):

Legend:
crabgrass = experiment: Test A crabgrass; assay type: in vivo, Digitaria spp.; conditions: 0 to 10 scale where 0 is no effect and 10 is complete control
Method: Seeds of barnyardgrass (Echinochloa crus-galli), crabgrass (Digitaria spp.), morningglory (Ipomoea spp.), and velvetleaf (Abutilon theophrasti) were planted into a sandy loam soil and treated preemergence by soil drench with test chemicals formulated in a non-phytotoxic solvent mixture which includes a surfactant At the same time, these crop and weed species were also treated postemergence sprayed to runoff, with test chemicals formulated in the same manner.
Plants ranged in height from two to eighteen cm and were in the one to two leaf stage for the postemergence treatment. Treated plants and untreated controls were maintained in a greenhouse for approximately eleven days, after which all treated plants were compared to untreated controls and visually evaluated for injury. Plant response ratings, summarized in Table A, are based on a 0 to 10 scale where 0 is no effect and 10 is complete control.

large crabgrass = experiment: Test C postemergence large crabgrass; assay type: in vivo, Digitaria sanguinalis; conditions: 0 to 100 scale, 0 no effect, 100 complete control
In short: (§1)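 Compounds in a non-phytotoxic solvent mixture with surfactant were sprayed postemergence on greenhouse-grown plants sized for treatment, in 60:40 sandy loam soil:potting mix. After about 14 to 21 days, injury was rated visually against untreated controls on a 0–100 scale (0 no effect, 100 complete control).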

redroot pigweed = experiment: Test C postemergence redroot pigweed; assay type: in vivo, Amaranthus retroflexus; conditions: 0 to 100 scale, 0 no effect, 100 complete control
Method: (§2) Compounds evaluated in this test were formulated in a non-phytotoxic solvent mixture which included a surfactant and applied to plants that were grown for various periods of time before treatment (postemergence application). A mixture of sandy loam soil and greenhouse potting mix in a 60:40 ratio was used for the postemergence test.
(§3) Plantings of these crops and weed species were adjusted to produce plants of appropriate size for the postemergence test. All plant species were grown using normal greenhouse practices. Crop and weed species include arrowleaf sida (Sida rhombifolia), barnyardgrass (Echinochloa crus-galli), cocklebur (Xanthium strumarium), common ragweed (Ambrosia elatior), corn (Zea mays), cotton (Gossypium hirsutum), eastern black nightshade (Solanum ptycanthum), fall panicum (Panicum dichotomiflorum), field bindweed (Convolvulus arvensis), giant foxtail (Setaria faberii), hairy beggarticks (Bidens pilosa), ivyleaf morningglory (Ipomoea hederacea), johnsongrass (Sorghum halepense), ladysthumb smartweed (Polygonum persicaria), lambsquarters (Chenopodium album), large crabgrass (Digitaria sanguinalis), purple nutsedge (Cyperus rotundus), redroot pigweed (Amaranthus retroflexus), soybean (Glycine max), surinam grass (Brachiaria decumbens), velvetleaf (Abutilon theophrasti) and wild poinsettia (Euphorbia heterophylla).
(§4) Treated plants and untreated controls were maintained in a greenhouse for approximately 14, to 21 days, after which all treated plants were compared to untreated controls and visually evaluated. Plant response ratings, summarized in Table C, were based upon a 0 to 100 scale where 0 was no effect and 100 was complete control. A dash response (−) means no test result.

common ragweed = experiment: Test C postemergence common ragweed; assay type: in vivo, Ambrosia elatior; conditions: 0 to 100 scale, 0 no effect, 100 complete control
In short: as §1

corn = experiment: Test C postemergence corn; assay type: in vivo, Zea mays; conditions: 0 to 100 scale, 0 no effect, 100 complete control
Method: as §2, §3, §4

eastern black nightshade = experiment: Test C postemergence eastern black nightshade; assay type: in vivo, Solanum ptycanthum; conditions: 0 to 100 scale, 0 no effect, 100 complete control
In short: as §1

surinam grass = experiment: Test C postemergence surinam grass; assay type: in vivo, Brachiaria decumbens; conditions: 0 to 100 scale, 0 no effect, 100 complete control
Method: as §2, §3, §4

fall panicum = experiment: Test C postemergence fall panicum; assay type: in vivo, Panicum dichotomiflorum; conditions: 0 to 100 scale, 0 no effect, 100 complete control
Method: as §2, §3, §4

barnyardgrass = experiment: Test C postemergence barnyardgrass; assay type: in vivo, Echinochloa crus-galli; conditions: 0 to 100 scale, 0 no effect, 100 complete control
In short: as §1

soybean = experiment: Test C postemergence soybean; assay type: in vivo, Glycine max; conditions: 0 to 100 scale, 0 no effect, 100 complete control
Method: as §2, §3, §4

purple nutsedge = experiment: Test C postemergence purple nutsedge; assay type: in vivo, Cyperus rotundus; conditions: 0 to 100 scale, 0 no effect, 100 complete control
In short: as §1

lambsquarters = experiment: Test C postemergence lambsquarters; assay type: in vivo, Chenopodium album; conditions: 0 to 100 scale, 0 no effect, 100 complete control
Method: as §2, §3, §4

Cc1ccccc1-n1c(=O)on(C(=O)N(C2=CCOCC2)C(C)C)c1=O [Compound 10]
8: Plant response rating, Crabgrass (crabgrass; Postemergence, Rate 1000 g/ha)
9: Plant response rating, Crabgrass (crabgrass; Pre-emergence, Rate 2000 g/ha)

CC(C)N(C(=O)n1oc(=O)n(Cc2cccs2)c1=O)c1ccccc1 [Compound 103]
80: Plant response rating, Barnyardgrass (barnyardgrass; Rate 1120 g/ha)
60: Plant response rating, Redroot pigweed (redroot pigweed; Rate 280 g/ha)
10: Plant response rating, Large crabgrass (large crabgrass; Rate 1120 g/ha) | Plant response rating, Barnyardgrass (barnyardgrass; Rate 560 g/ha)
85: Plant response rating, Redroot pigweed (redroot pigweed; Rate 1120 g/ha)
20: Plant response rating, Lambsquarters (lambsquarters; Rate 1120 g/ha)
0: Plant response rating, Large crabgrass (large crabgrass; Rate 140 g/ha) | Plant response rating, Large crabgrass (large crabgrass; Rate 280 g/ha) | Plant response rating, Large crabgrass (large crabgrass; Rate 560 g/ha) | Plant response rating, Redroot pigweed (redroot pigweed; Rate 140 g/ha) | Plant response rating Common ragweed (common ragweed; Rate 140 g/ha) | Plant response rating Common ragweed (common ragweed; Rate 280 g/ha) | Plant response rating Common ragweed (common ragweed; Rate 560 g/ha) | Plant response rating, Corn (corn; Rate 140 g/ha) | Plant response rating, Corn (corn; Rate 280 g/ha) | Plant response rating, Corn (corn; Rate 560 g/ha) | Plant response rating, Corn (corn; Rate 1120 g/ha) | Plant response rating E. blacknightsh (eastern black nightshade; Rate 140 g/ha) | Plant response rating E. blacknightsh (eastern black nightshade; Rate 280 g/ha) | Plant response rating E. blacknightsh (eastern black nightshade; Rate 560 g/ha) | Plant response rating E. blacknightsh (eastern black nightshade; Rate 1120 g/ha) | Plant response rating, Surinam grass (surinam grass; Rate 140 g/ha) | Plant response rating, Surinam grass (surinam grass; Rate 280 g/ha) | Plant response rating, Surinam grass (surinam grass; Rate 560 g/ha) | Plant response rating Fall panicum (fall panicum; Rate 140 g/ha) | Plant response rating Fall panicum (fall panicum; Rate 280 g/ha) | Plant response rating Fall panicum (fall panicum; Rate 560 g/ha) | Plant response rating, Barnyardgrass (barnyardgrass; Rate 140 g/ha) | Plant response rating, Barnyardgrass (barnyardgrass; Rate 280 g/ha) | Plant response rating, Purple nutsedge (purple nutsedge; Rate 140 g/ha) | Plant response rating, Purple nutsedge (purple nutsedge; Rate 280 g/ha) | Plant response rating, Purple nutsedge (purple nutsedge; Rate 560 g/ha) | Plant response rating, Purple nutsedge (purple nutsedge; Rate 1120 g/ha) | Plant response rating, Lambsquarters (lambsquarters; Rate 140 g/ha)
30: Plant response rating Fall panicum (fall panicum; Rate 1120 g/ha) | Plant response rating, Soybean (soybean; Rate 140 g/ha) | Plant response rating, Soybean (soybean; Rate 280 g/ha)
70: Plant response rating, Redroot pigweed (redroot pigweed; Rate 560 g/ha)
35: Plant response rating, Soybean (soybean; Rate 560 g/ha) | Plant response rating, Soybean (soybean; Rate 1120 g/ha)
5: Plant response rating Common ragweed (common ragweed; Rate 1120 g/ha) | Plant response rating, Surinam grass (surinam grass; Rate 1120 g/ha) | Plant response rating, Lambsquarters (lambsquarters; Rate 280 g/ha) | Plant response rating, Lambsquarters (lambsquarters; Rate 560 g/ha)

CC(C)N(C(=O)n1oc(=O)n(C2CCCCC2C(F)(F)F)c1=O)c1ccc(F)cc1 (stereo not drawn) [Compound 99]
7: Plant response rating, Crabgrass (crabgrass; Postemergence, Rate 1000 g/ha)
10: Plant response rating, Crabgrass (crabgrass; Pre-emergence, Rate 2000 g/ha)

C=CCn1c(=O)on(C(=O)N(c2ccccc2)C(C)C)c1=O [Compound 93]
45: Plant response rating, Corn (corn; Rate 1120 g/ha) | Plant response rating, Surinam grass (surinam grass; Rate 280 g/ha)
95: Plant response rating, Large crabgrass (large crabgrass; Rate 1120 g/ha) | Plant response rating, Barnyardgrass (barnyardgrass; Rate 1120 g/ha)
60: Plant response rating, Soybean (soybean; Rate 280 g/ha)
50: Plant response rating, Large crabgrass (large crabgrass; Rate 560 g/ha) | Plant response rating, Surinam grass (surinam grass; Rate 560 g/ha)
30: Plant response rating, Large crabgrass (large crabgrass; Rate 280 g/ha)
20: Plant response rating Common ragweed (common ragweed; Rate 1120 g/ha)
40: Plant response rating E. blacknightsh (eastern black nightshade; Rate 280 g/ha) | Plant response rating, Soybean (soybean; Rate 140 g/ha) | Plant response rating, Lambsquarters (lambsquarters; Rate 1120 g/ha)
80: Plant response rating Fall panicum (fall panicum; Rate 280 g/ha) | Plant response rating, Soybean (soybean; Rate 560 g/ha)
85: Plant response rating, Redroot pigweed (redroot pigweed; Rate 1120 g/ha) | Plant response rating E. blacknightsh (eastern black nightshade; Rate 1120 g/ha) | Plant response rating, Surinam grass (surinam grass; Rate 1120 g/ha) | Plant response rating, Soybean (soybean; Rate 1120 g/ha)
90: Plant response rating Fall panicum (fall panicum; Rate 560 g/ha) | Plant response rating Fall panicum (fall panicum; Rate 1120 g/ha) | Plant response rating, Barnyardgrass (barnyardgrass; Rate 280 g/ha) | Plant response rating, Barnyardgrass (barnyardgrass; Rate 560 g/ha)
10: Plant response rating, Redroot pigweed (redroot pigweed; Rate 560 g/ha) | Plant response rating Common ragweed (common ragweed; Rate 280 g/ha) | Plant response rating Common ragweed (common ragweed; Rate 560 g/ha) | Plant response rating E. blacknightsh (eastern black nightshade; Rate 140 g/ha) | Plant response rating, Purple nutsedge (purple nutsedge; Rate 1120 g/ha) | Plant response rating, Lambsquarters (lambsquarters; Rate 140 g/ha) | Plant response rating, Lambsquarters (lambsquarters; Rate 280 g/ha) | Plant response rating, Lambsquarters (lambsquarters; Rate 560 g/ha)
0: Plant response rating, Large crabgrass (large crabgrass; Rate 140 g/ha) | Plant response rating, Corn (corn; Rate 140 g/ha) | Plant response rating, Corn (corn; Rate 280 g/ha) | Plant response rating, Corn (corn; Rate 560 g/ha) | Plant response rating, Surinam grass (surinam grass; Rate 140 g/ha) | Plant response rating Fall panicum (fall panicum; Rate 140 g/ha) | Plant response rating, Purple nutsedge (purple nutsedge; Rate 140 g/ha) | Plant response rating, Purple nutsedge (purple nutsedge; Rate 280 g/ha) | Plant response rating, Purple nutsedge (purple nutsedge; Rate 560 g/ha)
70: Plant response rating, Barnyardgrass (barnyardgrass; Rate 140 g/ha)
5: Plant response rating, Redroot pigweed (redroot pigweed; Rate 140 g/ha) | Plant response rating Common ragweed (common ragweed; Rate 140 g/ha)
